Active and inactive are the calls of the source. The calls are words filed in the database; no cut-off is given here.
Tests used:
Mus musculus [1] = species: Mus musculus; experiment: Inhibition of c-KIT S709F mutant in mouse BAF3(transformed) cells assessed as growth inhibition after 72 hrs by CCK8 assay
[2] = target: RAC-alpha serine/threonine-protein kinase (Homo sapiens) (UniProt P31749); settings: GISTT1, 0.1 uM
Description: Inhibition of AKT autophosphorylation at T308 residue in human GISTT1 cells harboring c-KIT 560 to 578 deletion/T670I mutant at 0.1 uM measured after 2 hrs by Western blot analysis

[3] = test system: Mast/stem cell growth factor receptor Kit (Homo sapiens), P10721 [D816V]; settings: Mus musculus
Sequence of Mast/stem cell growth factor receptor Kit (Homo sapiens), P10721 [D816V] (P10721 whole entry D816V): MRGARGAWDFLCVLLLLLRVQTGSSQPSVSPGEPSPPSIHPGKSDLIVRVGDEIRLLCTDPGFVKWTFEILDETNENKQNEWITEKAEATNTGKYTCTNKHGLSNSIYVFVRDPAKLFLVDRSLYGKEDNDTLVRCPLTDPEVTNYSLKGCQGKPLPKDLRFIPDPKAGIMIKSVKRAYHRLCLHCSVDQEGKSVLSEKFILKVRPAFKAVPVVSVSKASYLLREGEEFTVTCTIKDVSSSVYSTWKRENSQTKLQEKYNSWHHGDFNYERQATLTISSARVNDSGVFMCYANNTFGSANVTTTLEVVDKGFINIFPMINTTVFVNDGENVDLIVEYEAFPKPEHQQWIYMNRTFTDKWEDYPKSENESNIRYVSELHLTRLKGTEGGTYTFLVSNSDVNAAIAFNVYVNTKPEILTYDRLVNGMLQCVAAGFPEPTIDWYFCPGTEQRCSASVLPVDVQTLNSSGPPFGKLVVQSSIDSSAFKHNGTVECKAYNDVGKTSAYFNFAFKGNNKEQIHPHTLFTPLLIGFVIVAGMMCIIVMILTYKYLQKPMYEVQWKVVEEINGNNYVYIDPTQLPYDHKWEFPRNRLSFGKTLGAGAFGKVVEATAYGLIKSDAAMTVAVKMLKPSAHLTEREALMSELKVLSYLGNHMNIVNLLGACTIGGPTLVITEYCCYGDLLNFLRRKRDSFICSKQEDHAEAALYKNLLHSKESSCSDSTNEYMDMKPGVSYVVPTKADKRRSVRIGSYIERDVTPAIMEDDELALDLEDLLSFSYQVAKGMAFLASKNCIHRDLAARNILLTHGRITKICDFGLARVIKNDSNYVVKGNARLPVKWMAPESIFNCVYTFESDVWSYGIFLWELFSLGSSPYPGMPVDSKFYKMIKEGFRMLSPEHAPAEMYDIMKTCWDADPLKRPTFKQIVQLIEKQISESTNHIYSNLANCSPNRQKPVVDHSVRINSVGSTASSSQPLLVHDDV
Description: Inhibition of c-KIT D816V mutant in mouse BAF3(transformed) cells assessed as growth inhibition after 72 hrs by CCK8 assay

[4] = test system: Mast/stem cell growth factor receptor Kit (Homo sapiens), P10721 [UNDEFINED MUTATION]; settings: GISTT1, 0.1 uM
Sequence of Mast/stem cell growth factor receptor Kit (Homo sapiens), P10721 [UNDEFINED MUTATION] (P10721 whole entry, looked up, stated change not applied): as the sequence (P10721 whole entry D816V) above, with V816D counted along it
Description: Inhibition of c-KIT 560 to 578 deletion mutant in human GISTT1 cells assessed as reduction in STAT3 phosphorylation at Y705 residue at 0.1 uM measured after 2 hrs by Western blot analysis

[5] = test system: Mast/stem cell growth factor receptor Kit (Homo sapiens), P10721 [D820Y]; settings: Mus musculus
Description: Inhibition of c-KIT D820Y mutant in mouse BAF3(transformed) cells assessed as growth inhibition after 72 hrs by CCK8 assay

Mus musculus [6] = species: Mus musculus; experiment: Inhibition of c-KIT T670I/V559D double mutant in mouse BAF3(transformed) cells assessed as growth inhibition after 72 hrs by CCK8 assay
[7] = target: Mast/stem cell growth factor receptor Kit (Mus musculus) (UniProt P05532); experiment: Inhibition of c-KIT in mouse BAF3(transformed) cells assessed as growth inhibition after 72 hrs by CCK8 assay
Sequence of Mast/stem cell growth factor receptor Kit (Mus musculus) (P05532 whole entry): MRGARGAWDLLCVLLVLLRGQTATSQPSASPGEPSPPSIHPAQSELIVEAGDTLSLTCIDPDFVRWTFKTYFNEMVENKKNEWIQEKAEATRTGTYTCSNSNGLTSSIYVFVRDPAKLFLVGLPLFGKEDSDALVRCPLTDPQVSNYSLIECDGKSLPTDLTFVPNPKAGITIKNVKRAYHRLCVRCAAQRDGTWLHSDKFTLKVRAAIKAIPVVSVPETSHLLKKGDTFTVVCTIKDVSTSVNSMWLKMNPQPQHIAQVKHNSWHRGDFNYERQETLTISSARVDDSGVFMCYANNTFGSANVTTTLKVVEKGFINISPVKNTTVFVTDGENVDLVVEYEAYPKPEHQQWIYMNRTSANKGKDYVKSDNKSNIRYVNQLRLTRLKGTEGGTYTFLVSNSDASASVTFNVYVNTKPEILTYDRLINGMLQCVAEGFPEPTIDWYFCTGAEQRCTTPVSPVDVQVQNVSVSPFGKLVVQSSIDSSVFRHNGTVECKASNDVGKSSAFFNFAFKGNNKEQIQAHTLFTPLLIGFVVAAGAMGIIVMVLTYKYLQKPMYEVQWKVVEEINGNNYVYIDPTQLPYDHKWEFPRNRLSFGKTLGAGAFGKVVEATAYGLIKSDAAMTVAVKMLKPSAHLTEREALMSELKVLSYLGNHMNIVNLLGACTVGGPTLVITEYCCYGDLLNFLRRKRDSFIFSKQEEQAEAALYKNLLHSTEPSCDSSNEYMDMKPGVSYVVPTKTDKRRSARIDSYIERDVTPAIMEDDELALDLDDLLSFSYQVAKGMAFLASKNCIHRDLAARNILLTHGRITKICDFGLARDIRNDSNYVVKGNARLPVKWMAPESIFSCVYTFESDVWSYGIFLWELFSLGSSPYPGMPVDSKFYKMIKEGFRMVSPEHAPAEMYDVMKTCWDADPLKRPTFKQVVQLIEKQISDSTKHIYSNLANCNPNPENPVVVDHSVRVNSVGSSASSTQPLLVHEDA

GISTT1 [8] = format: functional, Homo sapiens; settings: for inhibition in vivo at 20 mg/kg/day: Mus musculus, GISTT1, po, 672 h, read-out: TGI
[9] = test system: Mast/stem cell growth factor receptor Kit (Homo sapiens), P10721 [V559D]; settings: Mus musculus
Description: Inhibition of c-KIT V559D mutant in mouse BAF3(transformed) cells assessed as growth inhibition after 72 hrs by CCK8 assay

[10] = test system: Mast/stem cell growth factor receptor Kit (Homo sapiens), P10721 [UNDEFINED MUTATION]; settings: 0.1 uM
Description: Inhibition of c-KIT 560 to 578 deletion/T670I mutant in human GIST5R cells assessed as reduction in c-KIT autophosphorylation at Y719 residue at 0.1 uM measured after 2 hrs by Western blot analysis

Mus musculus [11] = species: Mus musculus; experiment: Inhibition of c-KIT T670E mutant in mouse BAF3(transformed) cells assessed as growth inhibition after 72 hrs by CCK8 assay
[12] = Antitumor activity against mouse BAF3(transformed) cells harboring c-KIT T670I mutant implanted in BALB/c nu mouse assessed as tumor growth inhibition at 40 mg/kg/day, po administered via gavage for 11 days relative to control; format: functional; settings: 264 h, read-out: TGI
[13] = test system: Mast/stem cell growth factor receptor Kit (Homo sapiens), P10721 [UNDEFINED MUTATION]; settings: 0.1 uM; remark: listed apart in the source
Description: Inhibition of c-KIT 560 to 578 deletion/T670I mutant in human GIST5R assessed as reduction in ERK phosphorylation at T204 residue at 0.1 uM measured after 2 hrs by Western blot analysis

[14] = test system: Mast/stem cell growth factor receptor Kit (Homo sapiens), P10721 [UNDEFINED MUTATION]; settings: 0.1 uM; remark: listed apart in the source
Description: Inhibition of c-KIT 560 to 578 deletion/T670I mutant in human GIST5R assessed as reduction in AKT phosphorylation at T308 residue at 0.1 uM measured after 2 hrs by Western blot analysis

[15] = test system: Mast/stem cell growth factor receptor Kit (Homo sapiens), P10721 [UNDEFINED MUTATION]; settings: GISTT1, 0.1 uM; remark: listed apart in the source
Description: Inhibition of c-KIT 560 to 578 deletion/T670I mutant in human GISTT1 cells assessed as reduction in pS6 phosphorylation at S235 residue at 0.1 uM measured after 2 hrs by Western blot analysis

[16] = Growth inhibition of human GIST48B cells after 72 hrs by CCK8 assay; format: functional
[17] = test system: Mast/stem cell growth factor receptor Kit (Homo sapiens), P10721 [D816H]; settings: Mus musculus
Description: Inhibition of c-KIT D816H mutant in mouse BAF3(transformed) cells assessed as growth inhibition after 72 hrs by CCK8 assay

[18] = test system: Mast/stem cell growth factor receptor Kit (Homo sapiens), P10721 [D820E]; settings: Mus musculus
Description: Inhibition of c-KIT D820E mutant in mouse BAF3(transformed) cells assessed as growth inhibition after 72 hrs by CCK8 assay

Mus musculus [19] = species: Mus musculus; experiment: Inhibition of c-KIT V654A/V559D double mutant in mouse BAF3(transformed) cells assessed as growth inhibition after 72 hrs by CCK8 assay
Mus musculus [20] = species: Mus musculus; experiment: Inhibition of c-KIT D816E mutant in mouse BAF3(transformed) cells assessed as growth inhibition after 72 hrs by CCK8 assay
[21] = test system: Mast/stem cell growth factor receptor Kit (Homo sapiens), P10721 [UNDEFINED MUTATION]; settings: 0.1 uM; remark: listed apart in the source
Description: Inhibition of c-KIT 560 to 578 deletion/T670I mutant in human GIST5R assessed as reduction in pS6 phosphorylation at S235 residue at 0.1 uM measured after 2 hrs by Western blot analysis

[22] = Growth inhibition of mouse BAF3 cells measured after 72 hrs by CCK8 assay; format: cell-based
Mus musculus [23] = species: Mus musculus; experiment: Inhibition of c-KIT D820G mutant in mouse BAF3(transformed) cells assessed as growth inhibition after 72 hrs by CCK8 assay
[24] = test system: Mast/stem cell growth factor receptor Kit (Homo sapiens), P10721 [A829P]; settings: Mus musculus
Description: Inhibition of c-KIT A829P mutant in mouse BAF3(transformed) cells assessed as growth inhibition after 72 hrs by CCK8 assay

[25] = test system: Mast/stem cell growth factor receptor Kit (Homo sapiens), P10721 [UNDEFINED MUTATION]; settings: GISTT1, 0.1 uM; remark: listed apart in the source
Description: Inhibition of c-KIT 560 to 578 deletion mutant in human GISTT1 cells assessed as reduction in AKT phosphorylation at T308 residue at 0.1 uM measured after 2 hrs by Western blot analysis

[26] = Cmax in mouse at 10 mg/kg, po by LC-MS/MS analysis; format: ADME, organism-based; parameters: dose 10 mg/kg, route oral; settings: in vivo
[27] = target: Platelet-derived growth factor receptor beta (Mus musculus) (UniProt P05622); experiment: Inhibition of PDGFRB in mouse BAF3(transformed) cells assessed as growth inhibition after 72 hrs by CCK8 assay
[28] = target: T1, Mast/stem cell growth factor receptor Kit (Homo sapiens, UniProt P10721, 560-578DEL/T670I)
T1 sequence (P10721 whole entry, looked up, stated change not applied, the tested form may be a part): as the sequence (P10721 whole entry D816V) above, with V816D counted along it

[29] = target: Macrophage colony-stimulating factor 1 receptor (Homo sapiens, UniProt P07333); experiment: Binding affinity to wild-type human partial length CSF1R (I564 to S939 residues) expressed in bacterial expression system assessed as residual binding level at 1 uM by Kinomescan method relative to control
[30] = Half life in Beagle dog at 5 mg/kg, po by LC-MS/MS analysis; format: ADME, organism-based, Canis lupus familiaris; settings: in vivo
GISTT1 [31] = format: functional, Homo sapiens
[32] = test system: Mast/stem cell growth factor receptor Kit (Homo sapiens), P10721 [UNDEFINED MUTATION]
Description: Inhibition of c-KIT 560 to 578 deletion/T670I mutant in human GIST5R cells assessed as growth inhibition after 72 hrs by CCK8 assay

[33] = target: T2, Mast/stem cell growth factor receptor Kit (Homo sapiens, UniProt P10721, 560-578DEL); format: cell-based, GISTT1
T2 sequence (P10721 whole entry, looked up, stated change not applied): as the sequence (P10721 whole entry D816V) above, with V816D counted along it

[34] = target: T1, Mast/stem cell growth factor receptor Kit; remark: listed apart in the source
[35] = Tmax in mouse at 10 mg/kg, po by LC-MS/MS analysis; format: ADME, organism-based; settings: in vivo
[36] = target: T1, Mast/stem cell growth factor receptor Kit; remark: listed apart in the source
[37] = target: Platelet-derived growth factor receptor alpha (Homo sapiens, UniProt P16234); experiment: Binding affinity to wild-type human partial length PDGFRA (V575 to D1002 residues) expressed in mammalian expression system assessed as residual binding level at 1 uM by Kinomescan method relative to control
[38] = target: T2, Mast/stem cell growth factor receptor Kit; format: cell-based, GISTT1; remark: listed apart in the source
GISTT1 [39] = format: functional, cell-based; settings: Homo sapiens
[40] = target: Epithelial discoidin domain-containing receptor 1 (Homo sapiens, UniProt Q08345); experiment: Inhibition of human GST-tagged DDR1 catalytic domain (440 to 876 residues) expressed in baculovirus expression system by Lanthascreen Eu-binding assay
GISTT1 [41] = format: functional, cell-based; settings: Homo sapiens; remark: listed apart in the source
GISTT1 [42] = format: functional, cell-based; settings: Homo sapiens; remark: listed apart in the source
[43] = target: T2, Mast/stem cell growth factor receptor Kit; format: cell-based, GISTT1; remark: listed apart in the source
[44] = Tmax in mouse at 1 mg/kg, iv by LC-MS/MS analysis; format: ADME, organism-based; settings: in vivo
[45] = Toxicity in BALB/c nu mouse implanted with mouse BAF3(transformed) cells harboring c-KIT Y823D mutant assessed as change in body weight at 40 to 80 mg/kg/day, po administered via gavage for 9 days measured daily during compound dosing; format: organism-based; settings: in vivo, 216 h
[46] = test system: Mast/stem cell growth factor receptor Kit (Homo sapiens), P10721 [L576P]; settings: Mus musculus
[47] = target: RAC-alpha serine/threonine-protein kinase (Homo sapiens) (UniProt P31749); format: cell-based

For `CCN(CC)CCNC(=O)c1c(C)[nH]c(/C=C2\C(=O)Nc3ccc(F)cc32)c1C` [SUNITINIB], the GI50 (Mus musculus [1]) was 28 nM, the inhibition [2] was “inactive” and the GI50 [3] was 1720 nM. The inhibition [4] was “Active”, the GI50 [5] was 172 nM and the GI50 (Mus musculus [6]) was 12 nM. It also gave a GI50 [7] of 3 nM, an inhibition in vivo at 20 mg/kg/day (GISTT1 [8]) of 93.6% and a GI50 [9] of 1 nM. For the same compound, the inhibition [10] was “Active”, the GI50 (Mus musculus [11]) was 89 nM and the inhibition in vivo at 40 mg/kg/day [12] was 96.7%. The inhibition [13] was “Active”, the inhibition [14] was “Active” and the inhibition [15] was “Active”. For the same compound, the GI50 [16] was 740 nM, the GI50 [17] was 315 nM and the GI50 [18] was 93 nM. For the same compound, the GI50 (Mus musculus [19]) was 19 nM, the GI50 (Mus musculus [20]) was 59 nM and the inhibition [21] was “Active”. The GI50 at 72 h [22] was 1010 nM, the GI50 (Mus musculus [23]) was 389 nM and the GI50 [24] was 18 nM. The inhibition [25] was “Active”.

`COc1cc2nccc(Oc3ccc(NC(=O)Cc4ccc(Cl)c(C(F)(F)F)c4)cc3)c2cc1OC` gave a GI50 (Mus musculus [1]) of 17 nM, a Cmax [26] of 1390 ng/mL and a GI50 [3] of 1730 nM. The GI50 [27] was 4 nM, the GI50 [5] was 3 nM and the GI50 (Mus musculus [6]) was 45 nM. For the same compound, the EC50 [28] was under 100 nM, the GI50 [7] was 1 nM and the Activity [29] was under 1%. For the same compound, the TGI (GISTT1 [8]; Homo sapiens, 20 mg/kg) was “Dose-dependent effect”, the inhibition in vivo at 20 mg/kg/day (GISTT1 [8]) was 59.4% and the GI50 [9] was 6 nM. For the same compound, the GI50 (Mus musculus [11]) was 71 nM, the inhibition in vivo at 40 mg/kg/day [12] was 90.2% and the half-life [30] was 19.4 h. The Activity (GISTT1 [31]) was 0.14 g, the GI50 [32] was 73 nM and the EC50 [33] was under 100 nM. It also gave an EC50 [34] of under 100 nM, a Tmax [35] of 4 h and a GI50 [16] of 1370 nM. It also gave a GI50 [17] of 97 nM, a GI50 [18] of 1 nM and a GI50 (Mus musculus [19]) of 42 nM. For the same compound, the EC50 [36] was under 100 nM, the Activity [37] was under 1% and the GI50 (Mus musculus [20]) was 16 nM. The EC50 [38] was under 100 nM, the Activity (GISTT1 [39]) was “Dose-dependent effect” and the IC50 [40] was 135 nM. The Activity (GISTT1 [41]) was “Dose-dependent effect”, the GI50 at 72 h [22] was 5970 nM and the Activity (GISTT1 [42]) was “Dose-dependent effect”. For the same compound, the EC50 [43] was under 100 nM, the Tmax [44] was 1.8 min and the Activity [45] was “Non-Toxic”. The GI50 (Mus musculus [23]) was 9 nM, the GI50 [46] was 1 nM and the GI50 [24] was 22 nM. For the same compound, the inhibition [47] was “Active”.
